Measured values as given in patent US10988477B2 (Merck Patent GmbH, priority 2018, dated 2021).

What follows are compounds tested against GCN2 kinase (Homo sapiens, UniProt Q9P2K8) (assay: GCN2 enzyme inhibition assay (Transcreener ADP2 fluorescence polarization)). Settings: Enzyme activity for compounds of Formula IV; Ki(app), 280 μM ATP, 25° C.
Type: biochemical
Outline: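 FP detection of ADP (antibody plus Alexa633 tracer) after a 1 h, 25 °C kinase reaction. Enzyme 4 nM, ATP 280 μM, (RS)7 peptide 200 μM, Tris pH 7.5 buffer with MgCl2 and DTT. Percent inhibition fitted by non-linear tight-binding algorithm for IC50 and Ki(app).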

GCN2 kinase, sequence (Q9P2K8 whole entry): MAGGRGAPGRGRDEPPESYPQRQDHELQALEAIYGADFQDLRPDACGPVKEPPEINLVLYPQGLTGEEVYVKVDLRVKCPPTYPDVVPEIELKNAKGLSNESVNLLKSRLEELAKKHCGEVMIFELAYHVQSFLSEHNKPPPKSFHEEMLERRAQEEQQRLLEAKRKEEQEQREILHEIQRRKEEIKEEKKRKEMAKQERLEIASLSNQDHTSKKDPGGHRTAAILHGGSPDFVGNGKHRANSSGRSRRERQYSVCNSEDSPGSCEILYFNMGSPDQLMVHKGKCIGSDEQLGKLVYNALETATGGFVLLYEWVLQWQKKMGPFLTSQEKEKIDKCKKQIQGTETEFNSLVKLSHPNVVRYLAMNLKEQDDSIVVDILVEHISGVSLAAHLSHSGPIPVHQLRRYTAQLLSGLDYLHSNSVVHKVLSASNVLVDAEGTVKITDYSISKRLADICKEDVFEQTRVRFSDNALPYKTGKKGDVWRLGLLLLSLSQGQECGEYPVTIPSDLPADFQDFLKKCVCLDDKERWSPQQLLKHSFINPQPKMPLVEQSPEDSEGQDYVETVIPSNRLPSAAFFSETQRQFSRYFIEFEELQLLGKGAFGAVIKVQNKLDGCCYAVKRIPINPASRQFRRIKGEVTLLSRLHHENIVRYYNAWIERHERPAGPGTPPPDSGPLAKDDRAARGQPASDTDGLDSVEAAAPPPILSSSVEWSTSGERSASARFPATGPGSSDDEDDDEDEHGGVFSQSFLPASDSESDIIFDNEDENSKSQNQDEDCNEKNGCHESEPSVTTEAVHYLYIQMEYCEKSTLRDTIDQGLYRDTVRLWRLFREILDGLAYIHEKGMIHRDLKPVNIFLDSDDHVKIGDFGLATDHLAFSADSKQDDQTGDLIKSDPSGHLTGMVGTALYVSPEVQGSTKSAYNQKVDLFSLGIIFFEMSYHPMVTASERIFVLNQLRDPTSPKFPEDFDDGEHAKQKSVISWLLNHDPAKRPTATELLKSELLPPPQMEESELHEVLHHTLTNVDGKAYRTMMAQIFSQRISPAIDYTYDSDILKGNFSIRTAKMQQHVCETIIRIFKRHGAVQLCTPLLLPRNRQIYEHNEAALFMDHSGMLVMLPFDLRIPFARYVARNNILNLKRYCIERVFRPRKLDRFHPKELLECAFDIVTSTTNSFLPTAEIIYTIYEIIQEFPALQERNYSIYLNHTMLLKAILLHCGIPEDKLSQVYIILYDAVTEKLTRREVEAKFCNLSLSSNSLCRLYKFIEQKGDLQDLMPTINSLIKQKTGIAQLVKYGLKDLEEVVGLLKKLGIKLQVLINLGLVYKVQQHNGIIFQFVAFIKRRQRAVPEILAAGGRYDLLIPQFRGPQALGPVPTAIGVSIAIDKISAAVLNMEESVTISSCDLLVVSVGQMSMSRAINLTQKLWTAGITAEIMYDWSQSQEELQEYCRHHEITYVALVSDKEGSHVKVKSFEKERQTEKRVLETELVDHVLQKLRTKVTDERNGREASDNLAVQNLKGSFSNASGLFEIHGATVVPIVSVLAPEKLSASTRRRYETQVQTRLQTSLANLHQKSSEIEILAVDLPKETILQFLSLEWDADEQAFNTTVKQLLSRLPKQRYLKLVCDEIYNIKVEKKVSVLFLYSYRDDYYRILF

Row | Ki [nM] | Structure (SMILES)
1 | 10 to 100 | CC1CN(c2ccnc(-c3cnc4cnc(C(F)(F)F)cn34)n2)CC(c2cn[nH]c2C(F)(F)F)N1 (single isomer, unassigned) [IV-475, 3-(4-(3-Methyl-5-(5-(trifluoromethyl)-1H-pyrazol-4-yl)piperazin-1-yl)pyrimidin-2-yl)-6-(trifluoromethyl)imidazo[1,2-a]pyrazine]
2 | 10 to 100 | Cc1n[nH]c(C)c1C1CCCN(c2ccnc(-c3cnc4cnc(C(F)(F)F)cn34)n2)C1 (single isomer, unassigned) [IV-477, 3-(4-(3-(3,5-Dimethyl-1H-pyrazol-4-yl)piperidin-1-yl)pyrimidin-2-yl)-6-(trifluoromethyl)imidazo[1,2-a]pyrazine]
3 | 100 to 1000 | FC(F)(F)c1cn2c(-c3nccc(N4CCC5(CCOCC5)C4)n3)cnc2cn1 [IV-522, 2-(2-(6-(Trifluoromethyl)imidazo[1,2-a]pyrazin-3-yl)pyrimidin-4-yl)-8-oxa-2-azaspiro[4.5]decane]
4 | 100 to 1000 | CC1(C)CN(c2ccnc(-c3cnc4cnc(C(F)(F)F)cn34)n2)CCO1 [IV-531, 2,2-Dimethyl-4-(2-(6-(trifluoromethyl)imidazo[1,2-a]pyrazin-3-yl)pyrimidin-4-yl)morpholine]
5 | 100 to 1000 | FC(F)(F)c1cn2c(-c3nccc(N4CCCCCC4)n3)cnc2cn1 [IV-429, 3-(4-(Azepan-1-yl)pyrimidin-2-yl)-6-(trifluoromethyl)imidazo[1,2-a]pyrazine]
6 | 100 to 1000 | FC(F)(F)c1cn2c(-c3nccc(N4CCCC(n5cncn5)C4)n3)cnc2cn1 (stereo not shown) [IV-547, 3-(4-(3-(1H-1,2,4-Triazol-1-yl)piperidin-1-yl)pyrimidin-2-yl)-6-(trifluoromethyl)imidazo[1,2-a]pyrazine]
7 | < 10 | C[C@H]1CN(c2ccnc(-c3cnc4cnc(C(F)(F)F)cn34)n2)C[C@@H](c2c[nH]cn2)O1 (racemic) [IV-380, Cis-2-(1H-Imidazol-4-yl)-6-methyl-4-(2-(6-(trifluoromethyl)imidazo[1,2-a]pyrazin-3-yl)pyrimidin-4-yl)morpholine]
8 | 100 to 1000 | CC1CCC(C)N(c2ccnc(-c3cnc4cnc(C(N)=O)cn34)n2)C1 (stereo not shown) [IV-271, 3-(4-(2,5-Dimethylpiperidin-1-yl)pyrimidin-2-yl)imidazo[1,2-a]pyrazine-6-carboxamide]
9 | 100 to 1000 | C[C@H]1CN(c2cccc(-c3cnc4cnc(C(F)F)cn34)n2)C[C@@H](CNS(C)(=O)=O)C1(F)F (single isomer, unassigned) [IV-275]
10 | 10 to 100 | CC1CN(c2nc(-c3cnc4cnc(C(F)(F)F)cn34)ncc2F)CC(c2cn[nH]c2)O1 (single isomer, unassigned) [IV-335, 4-(5-Fluoro-2-(6-(trifluoromethyl)imidazo[1,2-a]pyrazin-3-yl)pyrimidin-4-yl)-2-methyl-6-(1H-pyrazol-4-yl)morpholine]
11 | 100 to 1000 | NS(=O)(=O)c1ccc(C(=O)N[C@@H]2CCCN(c3ccnc(-c4cnc5cnc(C(F)(F)F)cn45)n3)C2)o1 [IV-710]
12 | 10 to 100 | Cc1cc(N2CCN(C(N)=O)CC2)nc(-c2cnc3cnc(C(N)=O)cn23)n1 [IV-196, 3-(4-(4-Carbamoylpiperazin-1-yl)-6-methylpyrimidin-2-yl)imidazo[1,2-a]pyrazine-6-carboxamide]
13 | 100 to 1000 | CC1C(c2cn[nH]c2)OCCN1c1ccnc(-c2cnc3cnc(C#N)cn23)n1 (single isomer, unassigned) [IV-291, 3-(4-(3-Methyl-2-(1H-pyrazol-4-yl)morpholino)pyrimidin-2-yl)imidazo[1,2-a]pyrazine-6-carbonitrile]
14 | 100 to 1000 | OCC1CN(c2ccnc(-c3cnc4cnc(C(F)(F)F)cn34)n2)CCO1 (stereo not shown) [IV-446, (4-(2-(6-(Trifluoromethyl)imidazo[1,2-a]pyrazin-3-yl)pyrimidin-4-yl)morpholin-2-yl)methanol]
15 | 10 to 100 | CC1CCCCN1c1ccnc(-c2cnc3cnc(C(N)=O)cn23)n1 (stereo not shown) [IV-261, 3-(4-(2-Methylpiperidin-1-yl)pyrimidin-2-yl)imidazo[1,2-a]pyrazine-6-carboxamide]
16 | 10 to 100 | Brc1cn2c(-c3nccc(N4CCNC(c5c[nH]cn5)C4)n3)cnc2cn1 (stereo not shown) [IV-348, 3-(4-(3-(1H-Imidazol-4-yl)piperazin-1-yl)pyrimidin-2-yl)-6-bromoimidazo[1,2-a]pyrazine]
17 | 100 to 1000 | FC(F)(F)c1cn2c(-c3nccc(N4CCCC5(COC5)C4)n3)cnc2cn1 [IV-523, 6-(2-(6-(Trifluoromethyl)imidazo[1,2-a]pyrazin-3-yl)pyrimidin-4-yl)-2-oxa-6-azaspiro[3.5]nonane]
18 | 100 to 1000 | Cc1csc2c1CN(c1ccnc(-c3cnc4cnc(C(F)(F)F)cn34)n1)CC2 [IV-714]
19 | 100 to 1000 | CC(=O)N1CCN(c2ccnc(-c3cnc4cnc(-c5c[nH]nc5C)cn34)n2)CC1 [IV-300, 1-(4-(2-(6-(3-Methyl-1H-pyrazol-4-yl)imidazo[1,2-a]pyrazin-3-yl)pyrimidin-4-yl)piperazin-1-yl)ethan-1-one]
20 | 10 to 100 | FC(F)(F)c1cn2c(-c3ccnc(N4CCCC(c5c[nH]cn5)C4)n3)cnc2cn1 (stereo not shown) [IV-484, 3-(2-(3-(1H-Imidazol-4-yl)piperidin-1-yl)pyrimidin-4-yl)-6-(trifluoromethyl)imidazo[1,2-a]pyrazine]
21 | < 10 | CCN1C(C)CN(c2ccnc(-c3cnc4cnc(C(F)(F)F)cn34)n2)C(C)C1c1cn[nH]c1 (single isomer, unassigned) [IV-296, 3-(4-(4-Ethyl-2,5-dimethyl-3-(1H-pyrazol-4-yl)piperazin-1-yl)pyrimidin-2-yl)-6-(trifluoromethyl)imidazo[1,2-a]pyrazine]
22 | 100 to 1000 | CS(=O)(=O)N1CCN(c2cccc(-c3ccnc(-c4cnc5cnc(C(F)F)cn45)n3)n2)CC1 [IV-151, 6-(Difluoromethyl)-3-(4-(6-(4-(methylsulfonyl)piperazin-1-yl)pyridin-2-yl)pyrimidin-2-yl)imidazo[1,2-a]pyrazine]
23 | 100 to 1000 | O=C1NCCN2CCN(c3ccnc(-c4cnc5cnc(C(F)(F)F)cn45)n3)CC12 (stereo not shown) [IV-568, 8-(2-(6-(Trifluoromethyl)imidazo[1,2-a]pyrazin-3-yl)pyrimidin-4-yl)hexahydro-2H-pyrazino[1,2-a]pyrazin-1(6H)-one]
24 | 10 to 100 | N#CC1CCN(c2ccnc(-c3cnc4cnc(C(N)=O)cn34)n2)CC1 [IV-254, 3-(4-(4-Cyanopiperidin-1-yl)pyrimidin-2-yl)imidazo[1,2-a]pyrazine-6-carboxamide]

Same assay, conditions: compounds of Formula II; 280 μM ATP, 4 nM GCN2 kinase

Row | Ki [nM] | IC50 [nM] | Structure (SMILES)
25 | 10 to 1000 |  | CC(=O)N1CCC(c2cc(-c3cnc4ccc(C(F)F)nn34)ncn2)CC1 [II-539]
26 | 10 to 1000 |  | CC1CC(N=S(C)(=O)C2CC2)CN(c2cc(-c3cnc4ccc(C(F)F)nn34)ncn2)C1 (stereo not shown) [II-634, Cyclopropyl((1-(6-(6-(difluoromethyl)imidazo[1,2-b]pyridazin-3-yl)pyrimidin-4-yl)-5-methylpiperidin-3-yl)imino)(methyl)-λ^6-sulfanone]
27 | 10 to 1000 |  | CC1(C)CN(c2cc(-c3cnc4ccc(C(F)F)nn34)ncn2)CC(CNS(C)(=O)=O)N1 (stereo not shown) [II-567, N-((4-(6-(6-(Difluoromethyl)imidazo[1,2-b]pyridazin-3-yl)pyrimidin-4-yl)-6,6-dimethylpiperazin-2-yl)methyl)methanesulfonamide]
28 | > 1000 |  | CC1C(CN=S(C)(C)=O)CCCN1c1cc(-c2cnc3ccc(C(F)F)nn23)ncn1 (stereo not shown) [II-583, (((1-(6-(6-(Difluoromethyl)imidazo[1,2-b]pyridazin-3-yl)pyrimidin-4-yl)-2-methylpiperidin-3-yl)methyl)imino)dimethyl-λ^6-sulfanone]
29 | > 1000 |  | CC1C(NS(C)(=O)=O)CCCN1c1cc(-c2cnc3ccc(C(F)F)nn23)ncn1 (stereo not shown) [II-600, N-(1-(6-(6-(Difluoromethyl)imidazo[1,2-b]pyridazin-3-yl)pyrimidin-4-yl)-2-methylpiperidin-3-yl)methanesulfonamide]
30 |  | > 1000 | C[C@H]1[C@H](CNS(C)(=O)=O)CCCN1c1cc(-c2cnc3ccc(C(F)F)nn23)ncn1 [II-756, N-(((2S,3S)-1-(6-(6-(difluoromethyl)imidazo[1,2-b]pyridazin-3-yl)pyrimidin-4-yl)-2-methylpiperidin-3-yl)methyl)methanesulfonamide]
31 | 10 to 1000 |  | OC1CCCC2C1NCCN2c1cc(-c2cnc3ccc(C(F)F)nn23)ncn1 (stereo not shown) [II-628, 1-[6-[6-(Difluoromethyl)imidazo[1,2-b]pyridazin-3-yl]pyrimidin-4-yl]-3,4,4a,5,6,7,8,8a-octahydro-2H-quinoxalin-5-ol]
32 | 10 to 1000 |  | CN1CCN(c2cc(-c3cnc4ccc(C(F)F)nn34)ncn2)CC1CCO (stereo not shown) [II-514, 2-(4-(6-(6-(Difluoromethyl)imidazo[1,2-b]pyridazin-3-yl)pyrimidin-4-yl)-1-methylpiperazin-2-yl)ethan-1-ol]
33 | 10 to 1000 |  | C[C@H]1CN(c2cc(-c3cnc4ccc(C(F)(F)F)nn34)ccn2)C[C@@H](c2nc(C3CC3)no2)O1 [II-743]
34 | 10 to 1000 |  | FC(F)(F)c1ccc2ncc(-c3ccnc(N4CCCC(c5ncc[nH]5)C4)c3)n2n1 (stereo not shown) [II-746]

Same assay, conditions: compounds of Formula IV; 280 μM ATP, 4 nM GCN2 kinase

Row | IC50 [nM] | Structure (SMILES)
35 | 10 to 1000 | Cc1n[nH]cc1[C@@H]1CN(c2ccnc(-c3cnc4cnc(C(F)(F)F)cn34)n2)C[C@@H](C)O1 [IV-760, (2R,6R)-2-methyl-6-(3-methyl-1H-pyrazol-4-yl)-4-(2-(6-(trifluoromethyl)imidazo[1,2-a]pyrazin-3-yl)pyrimidin-4-yl)morpholine]
36 | 10 to 1000 | Cc1n[nH]cc1[C@@H]1C[C@H](C)CN(c2nccc(-c3cnc4cnc(C(F)(F)F)cn34)n2)C1 [IV-759, 3-(2-((3S,5S)-3-methyl-5-(3-methyl-1H-pyrazol-4-yl)piperidin-1-yl)pyrimidin-4-yl)-6-(trifluoromethyl)imidazo[1,2-a]pyrazine]

Same assay, conditions: compounds of Formula V; 280 μM ATP, 4 nM GCN2 kinase

Row | Ki [nM] | Structure (SMILES)
37 | 100 to 1000 | CP(C)(=O)C1CC(c2cn[nH]c2)CN(c2ccnc(-c3cnc4sc(C(F)(F)F)cn34)n2)C1 (racemic) [Compound V-6, 5-[4-[3-Dimethylphosphoryl-5-(1H-pyrazol-4-yl)-1-piperidyl]pyrimidin-2-yl]-2-(trifluoromethyl)imidazo[2,1-b]thiazole]
